Results reported in US11879140B2, “P21 mRNA targeting DNAzymes” (1E Therapeutics Ltd., priority 2020, dated 2024).
[invdT] = inverted (3'-3') thymidine

Key:
human p21 mRNA = test: In vitro cleavage assay of human p21 mRNA; type: biochemical; settings: in vitro cleavage of p21 mRNA (SEQ ID NO: 1); RNA substrate 500 nM, 37° C. 60 min, agarose gel
From the text: Total RNA was isolates from senescent IMR-90 cells using Nucleospin® RNA kit (Macherey-Nagel™). cDNA was synthesized with gene-specific reverse primers using M-MLV Reverse Transcriptase (Promega), according to the manufacturer's protocol. To generate template for in vitro transcription (IVT) reaction, the cDNA was PCR amplified using KAPA Taq EXtra HotStart® ReadyMix™ PCR Kit (R&D). PCR product was run on 1.5% agarose TAE gel, the correct band size was cut and DNA was cleaned using Wizard® SV Gel and PCR Clean-Up System kit (Promega). IVT was performed using HiScribe™ T7 High Yield RNA Synthesis Kit (NEB). Samples were then treated with DNase I (New England Biolabs) and incubated for 15 minutes at 37° C. IVT product was run on 1.5% agarose TBE gel, the correct band size was cut and RNA was cleaned using QIAquick® Gel Extraction Kit (Qiagen). See primer sequences in Table 1, below.
RNA substrate was diluted with Molecular Biology Grade Water (Biological Industries) and used in in vitro cleavage assay. A 20 μl reaction system comprising RNA substrate (final concentration 500 nM), 2 μl 10× reaction buffer (50 mM Tris-HCl pH 7.4, 100 mM NaCl, 10 mM MgCl2) and 1 μl DNAzyme (10 μM) (as depicted in Table 2, below) was mixed. Reactions were incubated at 37° C. for 60 min. 2×RNA L.D. (Thermo Fisher) was added to each sample. Samples were heated at 70° C. for 30 sec, centrifuged and loaded onto 1.5% agarose TBE gels. Quantification was performed using Image Lab software (Bio Rad).

p21 mRNA = test: Quantitative RT-PCR of p21 mRNA in senescent cells; type: cell-based, human; settings: over 24 hours following treatment, 2000 nM (FIG. 5D)
Experimental: Total RNA was extracted from IMR-90 cells using NucleoSpin® RNA (Macherey-Nagel™), according to the manufacturer protocol. Complementary DNA was prepared using the M-MLV Reverse Transcriptase (Promega), according to the manufacturer protocol. Quantitative real-time PCR was performed using the SYBR Green PCR master-mix (Applied Biosystems) on a CFX96 Real-Time PCR System (Bio Rad). See primer sequences in Table 1, above.

[1] = test system: senescent human IMR-90 fibroblast cells; type: cell-based; settings: increasing concentrations (FIGS. 6A-C, 12A-C)
Experimental: (§1) Human IMR-90, BJ, WI-38 fibroblasts and REC epithelial cells were obtained from ATCC and grown at 5% oxygen. IMR-90 and REC cells were maintained in DMEM medium comprising 100 units per ml of penicillin, […] of streptomycin and 10% fetal bovine serum. BJ and WI-38 cells were maintained in EMEM medium comprising 100 units per ml of penicillin, […] of streptomycin, 10% fetal bovine serum, 1% Pyruvate, 1% L-Glutamine, mLFs were isolated according to standard procedures [Seluanov, A., et al. J Vis Exp (2010) (44):2033] and grown at 5% oxygen. Cells were maintained in EMEM medium comprising 100 units per ml of penicillin, […] of streptomycin and 15% fetal bovine serum.
(§2) DNA damage induced senescence (DIS) was induced by etoposide treatment (E1383, Sigma) at a concentration of […] for IMR-90, BJ, and WI-38, 16 μM for mLF and 12.5 μM for REC for a duration of 48 hours. Cells acquired the senescence phenotype 7 days post treatment (determined by SA-beta-gal staining).
Oncogene Induced Senescence (OIS) was induced by means of retroviral infection with H-RasG12 (pLNCX2) at 5% oxygen. Retroviruses were packaged, and infections were performed as described below.
Replicative Induced Senescence (RIS) was induced by long-term passaging of the cells in tissue culture. Cells acquired the senescence phenotype after 40 population doublings.
Primary target cells (IMR-90, BJ, […]) were plated in 24-well plates at 100,000 cells per well. Cells were transfected with different concentrations of DNAzymes (as depicted in Table 2, below) using Lipofectamine™ 2000 (Invitrogen) according to manufacturer instructions. The percentage of survival was determined based on quantification of remaining adherent cells using PrestoBlue® reagent (A13262, Life Technologies Ltd.) relative to Lipofectamine™ only control and compared to Scramble DNAzyme (Dz_Scramble) [Scramble Arm (Scr A) sequence: ATCTTCCTFggctagctacaacgaCGCCTCTCC, SEQ ID NO: 5, or Scramble catalytic core (Scr B) sequence: AGGAGAACAacagtaactggcgacGGGATGAGG, SEQ ID NO: 86] treated cells, 3-6 days following transfection.

[2] = test system: senescent lung fibroblasts (WI-38); test: Viability assay on WI-38 cells; type: cell-based, human; settings: FIG. 6D
Experimental: as §1, §2
(§3) Primary target cells (IMR-90, BJ, […]) were plated in 24-well plates at 100,000 cells per well. Cells were transfected with different concentrations of DNAzymes (as depicted in Table 2, below) using Lipofectamine™ 2000 (Invitrogen) according to manufacturer instructions. […]

[3] = test system: senescent epithelial kidney cells (REC); test: Viability assay on REC cells; type: cell-based, human; settings: FIG. 6D
Experimental: as §1, §2, §3

healthy C57/B6 mice = test: In-vivo safety of DNAzyme in mice
Experimental: 8 weeks old male and female C57/BL6 were treated intranasally with DNAzyme 1670 for 14 days. DNAzyme was administered in three concentrations: 40, 200 and 1000 μg. PBS treated mice served as control. Body weight, viability, clinical signs and behavior were monitored daily. On day 14, blood was collected using cardiac puncture and mice were sacrificed thereafter. Blood analyses were performed by AML (Central Lab Services). Hematology was performed using Advia-2120 (Siemens Healthineers). Biochemistry was performed using COBAS® 6000 (Roche Diagnostics).

[4] = test system: Bleomycin-induced pulmonary fibrosis model mice; test: Bleomycin-induced idiopathic pulmonary fibrosis (IPF) mouse model; type: in vivo
Experimental: Total RNA from lung samples (post-caval lobe) was extracted using RNAiso (Takara Bio. Japan) according to manufacturer protocol. Reverse transcription was performed using MMLV-RT (Invitrogen). Real-time PCR was performed using TB Green™ Premix Ex Taq™ II (Takara Bio). To calculate the relative mRNA expression level, the expression of each gene (Collagen Type 1) were be normalized to that of reference gene 36B4 (gene symbol: Rplp0).
C57/B6 mice were induced to develop pulmonary fibrosis by a single intra-tracheal administration of Bleomycin hydrochloride (Nippon Kayaku. Japan) in saline at a dose of 3.0 mg/kg, in a volume of 50 μL per animal using Microsprayer® (Penn-Century. USA). Mice that served as the Sham control group were intratracheally administered with saline, instead of the Bleomycin. Mice were initially randomized based on body weight before Bleomycin instillation. At second randomization, Bleomycin-induced pulmonary fibrosis model mice were divided based on the body weight changes on the day before the start of treatment at Day 7. DNAzyme treatment was performed intranasally with 200 μg of DNAzyme resuspended in 50 μL PBS per treatment. PBS intra-nasal treatment served as control. Mice were treated daily following Bleomycin instillation with either DNAzyme or control from day 1 to 20 (prophylactic regimen) or from day 7 to 20 (therapeutic regimen). Body weight, viability, clinical signs and behavior were monitored daily. Mice were sacrificed three weeks following Bleomycin instillation.
Right lung tissues prefixed in 10% neutral buffered formalin were embedded in paraffin and sectioned at 4 μm.
For immunohistochemistry (IHC) staining, sections were subjected to heat induced epitope retrieval (HIER) Following HIER, the sections were incubated rabbit monoclonal anti-p21 antibody [EPR18021] (Abcam) 1:2000 or rabbit monoclonal anti-α-SMA antibody [EPR5368] (Abcam) 1:2000. Section bound primary antibody was detected employing horseradish peroxidase labeled anti-rabbit IgG polymeric reagent.
For Masson's Trichrome staining, the sections were deparaffinized and rehydrated, followed by re-fixation with Bouin's solution for 15 minutes. The sections were stained in Weigert's iron Hematoxylin working solution (Sigma-Aldrich), Biebrich scarlet-Acid fuchsin solution (Sigma-Aldrich), Phosphotungstic/phosphomolybdic Acid solution, Aniline blue solution and 1% Acetic Acid solution (Sigma-Aldrich). For quantitative analysis of lung fibrosis area, bright field images of Masson's Trichrome-stained sections were randomly captured using a digital camera (DFC295; Leica, Germany) at 100-fold magnification, and the subpleural regions in 20 fields/mouse were evaluated according to the criteria for grading lung fibrosis [Ashcroft. T. et al., Simple method of estimating severity of pulmonary fibrosis on a numerical scale. J Clin. Pathol. (1988) 41: 467-470]. All sections were blindly analyzed by an experimenter.
Digital images were analyzed by a custom MATLAB algorithm, using Image Processing Toolbox. First, a binary image was calculated, in order to distinguish background pixels from the lobe pixels. Next, a morphological close operation on the image was preformed, fill of the holes, and extraction of the largest connected component, in order to detect all lobe area, including alveoli. The density of the lobe was defined by the ratio between the stained pixels to the total pixels in the lobe area. For Masson's Trichrome staining, blue pixels were detected and separated from purple staining by specifying RGB (red, green, and blue) constraints. The Collagen percentage in each image was defined by the ratio between the blue pixels to the total pixels in the lobe area.
For p21 staining, an image segmentation algorithm was performed to identify all nuclei in image. Next, cells positive to p21 were detected by RGB and size constraints. […]

mouse p21 mRNA = test: In vitro cleavage of mouse p21 mRNA; type: biochemical; settings: in vitro cleavage of mouse p21 mRNA (SEQ ID NO: 3)

DNAzyme 985: SEQ ID NO: 36: GGGGGCGGtccgagccggacgaAGGGTATGT (GGGGGCGGTCCGAGCCGGACGAAGGGTATGT; DNA, backbone and methylation of C not given here)
Validated cleavage (human p21 mRNA): validated for mediating cleavage of p21 mRNA
p21 mRNA knockdown (p21 mRNA): 73%
selectivity of killing, senescent versus growing IMR-90 cells [1]: wide range of selective doses

DNAzyme 1114: SEQ ID NO: 40: AGGAGAACAggctagctacaacgaGGGAUGAGG (DNA AGGAGAACAGGCTAGCTACAACGAGGGAUGAGG; DNA, backbone, methylation of C and T or U not given here)
Validated cleavage (human p21 mRNA): validated for mediating cleavage of p21 mRNA
elimination of senescent but not growing WI-38 cells [2]: effectively eliminated
selectivity of killing, senescent versus growing IMR-90 cells [1]: maintained over a large range of concentrations
elimination of senescent but not growing REC cells [3]: effectively eliminated

DNAzyme 1670 comprising a 3′Inverted dT: DNAzyme 1670 (SEQ ID NO: 54) with a 3′ inverted dT modification (DNA GGGAAAGGAGGCTAGCTACAACGAAAGGGGGAG; DNA, all phosphodiester, 3' [invdT], methylation of C not given here; further chemistry not fully specified)
blood tests: complete blood count and biochemistry parameters (healthy C57/B6 mice; 2 week endpoint (FIGS. 13G-O)): safe profile
signs of pain or distress (healthy C57/B6 mice; 40, 200, 1000 micrograms intranasally daily for 2 weeks): no obvious signs of pain or distress
body weight between groups (healthy C57/B6 mice; 40, 200, 1000 micrograms intranasally daily for 2 weeks (FIG. 13F)): no significant differences

Dz_639: targets mouse p21; SEQ ID NO: 85: GGCCGAAGAggctagctacaacgaGGGGAAGAG; used in IPF model (GGCCGAAGAGGCTAGCTACAACGAGGGGAAGAG; chemistry not given here)
oxygen saturation in the blood ([4]; FIG. 14A): significantly elevated
number of p21 expressing cells in the lung tissue ([4]; both treatment regimens, IHC day 21 (FIG. 14B)): reduction
Hydroxyproline levels ([4]; left lung, day 21, therapeutic and preventative (FIG. 14E)): reduced
Ashcroft fibrosis score ([4]; lung sections day 21, compared to bleomycin treated group, p=0.0206 (FIG. 10B)): lower
survival rate ([4]; over 21 days, both therapeutic and preventative regimens, vehicle group 75% (FIG. 10D)): 100%
expression levels of senescence related genes and SASP factors ([4]; post caval lobe, day 21 (FIG. 14C)): significantly reduced
lung tissue density ([4]; therapeutic and preventive groups (FIG. 14F)): reduced
collagen levels (Masson's Trichrome) ([4]; therapeutic and preventive regimens (FIG. 14D)): significantly reduced
Validated cleavage (mouse p21 mRNA): effective
